Measured values taken from the supplement of paper PMC13380429.

What was measured:
Conditions in all cases: 72 h
[1] = tested on: Calu-3; test: cell viability relative to DMSO; higher = less toxic
[2] = tested on: HepG2; test: as above
[3] = tested on: Caco-2; test: as above
[4] = tested on: U2OS; test: as above
[5] = tested on: Calu-3; test: drug sensitivity score (DSS) for viability; higher = more toxic; extreme values may be limits of the assay
[6] = tested on: HepG2; test: as above
[7] = tested on: Caco-2; test: as above
[8] = tested on: U2OS; test: as above
[9] = tested on: Calu-3; test: relative viability EC50 (midpoint between 100% and the lowest measured viability); higher = less toxic
[10] = tested on: HepG2; test: as above
[11] = tested on: Caco-2; test: as above
[12] = tested on: U2OS; test: as above
[13] = tested on: Vero E6; test: cell viability relative to DMSO; higher = less toxic
[14] = tested on: Vero E6; test: drug sensitivity score (DSS) for viability; higher = more toxic; extreme values may be limits of the assay

Row | Structure (SMILES) | cell viability ([1]; 1 nM) [%] | cell viability ([1]; 10 nM) [%] | cell viability ([1]; 100 nM) [%] | cell viability ([1]; 1000 nM) [%] | cell viability ([1]; 10000 nM) [%] | cell viability ([2]; 1 nM) [%] | cell viability ([2]; 10 nM) [%] | cell viability ([2]; 100 nM) [%] | cell viability ([2]; 1000 nM) [%] | cell viability ([2]; 10000 nM) [%] | cell viability ([3]; 1 nM) [%] | cell viability ([3]; 10 nM) [%] | cell viability ([3]; 100 nM) [%] | cell viability ([3]; 1000 nM) [%] | cell viability ([3]; 10000 nM) [%] | cell viability ([4]; 1 nM) [%] | cell viability ([4]; 10 nM) [%] | cell viability ([4]; 100 nM) [%] | cell viability ([4]; 1000 nM) [%] | cell viability ([4]; 10000 nM) [%] | drug sensitivity score [5] | drug sensitivity score [6] | drug sensitivity score [7] | drug sensitivity score [8] | relative viability EC50 [9] [µM] | relative viability EC50 [10] [µM] | relative viability EC50 [11] [µM] | relative viability EC50 [12] [µM] | cell viability ([13]; 1 nM) [%] | cell viability ([13]; 10 nM) [%] | cell viability ([13]; 100 nM) [%] | cell viability ([13]; 1000 nM) [%] | cell viability ([13]; 10000 nM) [%] | drug sensitivity score [14]
1 | CCOC(=O)C1=C(C)NC(c2ccccc2)=C(C(=O)OCc2ccc([N+](=O)[O-])cc2)[C@@H]1C#Cc1ccccc1 [MRS-1334] | 99.2 | 97.1 | 96.8 | 95.2 | 98 | 114 | 104 | 100 | 92.6 | 89.3 | 99.1 | 99.7 | 92.8 | 96.8 | 91.9 | 104 | 95.8 | 100 | 101 | 97.9 | 0 | 0.1 | 0 | 0 | > 10 | > 10 | > 10 | > 10 |  |  |  |  |  | 
2 | COc1cc(N2CCC(O)CC2)ccc1Nc1cc(Nc2ccccc2S(=O)(=O)C(C)C)c2cc[nH]c2n1 [Mps1-IN-1] | 101 | 114 | 90.9 | 102 | 85.6 | 96.5 | 118 | 95.2 | 95.5 | 37.8 | 102 | 92.2 | 97.4 | 101 | 53.9 | 103 | 101 | 101 | 98.3 | 70.2 | 0.1 | 4.1 | 2.3 | 1.5 | > 10 | 2.57 |  |  | 106 | 103 | 102 | 98.9 | 74 | 1.2
3 | O=C(Nc1ccccc1)N1CCC(Cc2cnc3ccccc3c2)CC1 [PF-750] | 89.9 | 88.1 | 114 | 95.7 | 95.9 | 96.6 | 108 | 103 | 98.1 | 93 | 106 | 99.4 | 94.5 | 102 | 88.3 | 97.2 | 92 | 96.8 | 96.5 | 97.9 | 0 | 0 | 0 | 0 | > 10 | > 10 | > 10 | > 10 |  |  |  |  |  | 
4 | OCc1ccc(-c2ccc(-c3ccc(CO)s3)o2)s1 [RITA] | 102 | 101 | 90.6 | 103 | 106 | 107 | 110 | 88.3 | 92.4 | 4.6 | 99.2 | 103 | 100 | 89.4 | 77.8 | 95 | 96.3 | 102 | 101 | 32.4 | 0 | 6.5 | 1.9 | 3.6 | > 10 | 2.51 | > 10 | 3.25 | 101 | 103 | 103 | 102 | 68 | 1.3
